According to patent US20230202973A1, “BARNESIN A, DERIVATIVES AND USES THEREOF” (Leibniz-Institut Für Naturstoff-Forschung Und …, priority 2018, published 2023):
Like-named read-outs stand apart in the source and are kept apart here. Square brackets hold non-standard residues; d marks the D form. Peptide text beside a SMILES is read from it. * marks the point of attachment. Sta = CC(C)C[C@H](N)[C@@H](O)CC(=O)O; Isovaleryl = CC(C)CC(=O)*

What was measured:
Trypsin [1] = details: reported in literature; cited from earlier work
Cathepsin B [2] = target: T1, Cathepsin B (Homo sapiens, UniProt P07858); details: reported in literature, read-out: Cathepsin B, reported inhibitory activity as IC50 value, cited from earlier work
[3] = tested on: trypsin (Thermo Fisher, 23266); test: Protease assay with azocasein, trypsin; format: biochemical; details: 2 mM PMFS
Protocol: (§1) Protease Assays with azocasein: Protease inhibition assays against the proteases papain, ficin, trypsin, pepsin and thermolysin were performed according to the protocol of Garcia-Carreño (loc. cit.) in a reaction buffer containing 25 mM TRIS-HCl, 0.15 M NaCl, pH 7.2 (or pH 3.5 for aspartic protease). The total assay volume was 47 μL buffer with 2 μL of the protease as well as 1 μL of suitable inhibitor or corresponding inhibitor solvent (100% MeoH or water). […]
(§2) Inhibitors were dissolved in 100% MeOH or water and added to the assay (1 μL); final concentration: 2% MeOH. […] Extract absorbance controls were performed using inhibitor (1 μL in MeOH) without protease. […]
(§3) Samples were incubated with buffer and suitable inhibitor (or without for negative controls) for 1 h at r.t. and the reaction was started afterward by adding 50 μl of […] substrate and incubated for 1 h at 37° C. […] The hydrolyzed substrate supernatant was incubated in an equal volume of 0.5 N NaOH for 5 min and the absorbance was measured at 440 nm. […]
(§4) The log IC50 values were determined using the standard curves analyzing tool with four parameter logistic equation of SigmaPlot12 with technical triplicates. Propagation of error was calculated using the standard error and log IC50 values where the equation of error propagation is defined as Δy=0.43Δx/x.

papain = target: T2, papain (Carica papaya, UniProt P00784); details: reported in literature for known compounds; read-out: Papain, reported inhibitory activity as IC50 value; cited from earlier work
T2 construct: purchased Sigma-Aldrich P4762
T2 sequence (P00784 134-345): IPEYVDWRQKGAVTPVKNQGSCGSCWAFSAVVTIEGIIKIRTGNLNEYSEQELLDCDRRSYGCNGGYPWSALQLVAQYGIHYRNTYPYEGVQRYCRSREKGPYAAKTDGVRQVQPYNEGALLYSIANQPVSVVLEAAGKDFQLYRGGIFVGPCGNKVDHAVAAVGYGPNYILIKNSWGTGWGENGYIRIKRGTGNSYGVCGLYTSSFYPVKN

hCatL = hCatL (Homo sapiens, UniProt P07711); test: Fluorescence-based activity test against cathepsin L (Cbz-Phe-Arg-AMC); format: biochemical; design: dose or concentration left out as unconfirmed
Chain of hCatL (P07711 114-333): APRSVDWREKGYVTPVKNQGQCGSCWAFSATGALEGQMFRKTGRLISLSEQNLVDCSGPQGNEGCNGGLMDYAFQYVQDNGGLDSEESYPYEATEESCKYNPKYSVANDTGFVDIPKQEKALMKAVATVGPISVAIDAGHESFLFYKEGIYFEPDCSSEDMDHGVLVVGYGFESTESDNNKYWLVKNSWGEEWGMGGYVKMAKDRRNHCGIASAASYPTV
Protocol: (§5) Activity Tests Against Cathepsin B, Cathepsin L and Rhodesain.
(§6) The determination of the activity of the inhibitors against hCatL and RD was performed in fluorescence-based assays in accordance with the assays described in Giroud et al., ChemMedChem 12 (2017), 257-270 and Schirmeister, Bioorganic & Medicinal Chemistry Letters 27 (2017) 45-50. The biological activities against hCatL were determined using Cbz-Phe-Arg-AMC as substrate, which releases AMC (7-amino-4-methylcoumarin) after amide bond cleavage by the enzyme. The proteolytic activity of the enzyme can be monitored spectrophotometrically by the increase of fluorescence intensity by release of AMC (emission at 460 nm) upon hydrolysis. An initial screen at an inhibitor concentration […] was performed to identify ligands with an inhibition of hCatL and RD higher than 80%.

Cathepsin B [4] = target: T1, Cathepsin B; test: Activity test against cathepsin B (initial screen, Table 5); format: biochemical; design: dose or concentration left out as unconfirmed
Protocol: as §5, §6

Rhodesain = Rhodesain (Trypanosoma brucei rhodesiense, UniProt Q95PM0); test: Fluorescence-based activity test against rhodesain; format: biochemical; details: initial screen at an inhibitor concentration of 20 mM; ni = no inhibition
Chain of Rhodesain (Q95PM0 entry or part of it): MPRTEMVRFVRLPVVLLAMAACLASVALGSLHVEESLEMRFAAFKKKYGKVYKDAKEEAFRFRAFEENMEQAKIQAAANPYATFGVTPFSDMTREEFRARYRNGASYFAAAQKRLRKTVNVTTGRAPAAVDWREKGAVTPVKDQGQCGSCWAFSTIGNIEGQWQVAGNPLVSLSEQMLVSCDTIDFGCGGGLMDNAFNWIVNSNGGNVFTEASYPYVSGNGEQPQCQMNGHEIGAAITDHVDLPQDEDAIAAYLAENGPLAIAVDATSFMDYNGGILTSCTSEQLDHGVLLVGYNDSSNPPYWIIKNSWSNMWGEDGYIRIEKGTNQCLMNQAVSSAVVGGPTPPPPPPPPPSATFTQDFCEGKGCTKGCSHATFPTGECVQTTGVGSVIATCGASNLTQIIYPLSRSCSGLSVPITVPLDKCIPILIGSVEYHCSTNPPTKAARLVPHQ
Protocol: as §5
Rhodesain is a central cysteine protease from Trypanosoma brucei rhodesiense and a potential drug target against human African trypanosomiasis (sleeping sickness).
as §6

[5] = tested on: ficin (Sigma-Aldrich, F6008); test: Protease assay with azocasein, ficin; format: biochemical; details: 2 mM iodacetamide
Protocol: as §1, §2, §3, §4

[6] = target: T3, papain (Sigma-Aldrich, P4762) (Carica papaya, UniProt P00784); test: Protease assay with azocasein, papain; format: biochemical; details: 2 mM iodacetamide; read-out: inhibition of enzyme activity (control inhibitor), papain
T3 sequence (P00784 134-345): T2 sequence (P00784 134-345)
Protocol: as §1, §2, §3, §4

[7] = tested on: pepsin (Sigma-Aldrich P6887); test: Protease assay with azocasein, pepsin; format: biochemical; details: 1 μg/mL pepstatin A
Protocol: as §1, §2, §3, §4

trypsin [8] = details: reported in literature for known compounds; read-out: Trypsin, reported inhibitory activity as IC50 value; cited from earlier work

## CC[C@H](NC(=O)C[C@H](O)[C@H](CC(C)C)NC(=O)[C@H](CC(C)C)NC(=O)[C@@H]1N[C@H]1C(=O)O)C(=O)N[C@H](/C=C/C(=O)O)CCCNC(=N)N [Miraziridine A]
Trypsin [1]
  IC50: 60 µM
Cathepsin B [2]; cells printed in μM
  IC50: 2.05 µM

## O=S(=O)(F)Cc1ccccc1 [PMFS]
[3]
  inhibition of enzyme activity (control inhibitor), trypsin: > 95%

## CC(C)[C@H](NC(=O)c1ccc(O)cc1)C(=O)N[C@H](C(=O)N[C@H](C=O)CCCNC(=N)N)C(C)C [Tokaramide A]
Cathepsin B [2]; cells printed in nM
  IC50: 0.0624 µM

## CC(C)CC(=O)N[C@H](Cc1ccc(O)cc1)C(=O)N[C@H](C(=O)N[C@@H](C=O)Cc1ccccc1)C(C)C [YM 51084] (Isovaleryl-[dY]-Val-[dF]-aldehyde)
papain
  IC50: 2.2 µM
Cathepsin B [2]; cells printed in nM
  IC50: 0.012 µM

## CCCCC/C=C/C(=O)N[C@H](Cc1ccc(O)cc1)C(=O)N[C@H](/C=C/C(=O)O)CCCNC(=N)N [drawing 49]
hCatL
  inhibition: 7%
Cathepsin B [4]
  inhibition: 5%
Rhodesain
  Rhodesain (%) inhibition: ni

## NC(=O)CI [iodacetamide]
[5]
  inhibition of enzyme activity (control inhibitor), ficin: > 95%
[6]
  inhibition at 2000 µM: > 95%

## CC(C)CC(=O)N[C@H](C(=O)N[C@H](C(=O)N[C@@H](CC(C)C)[C@@H](O)CC(=O)N[C@@H](C)C(=O)N[C@@H](CC(C)C)[C@@H](O)CC(=O)O)C(C)C)C(C)C [pepstatin A] (Isovaleryl-VV[Sta]A[Sta]-OH)
[7]
  inhibition of enzyme activity (control inhibitor), pepsin: > 95%

## Cystatin
Trypsin [8]
  IC50: 3.5 µM
papain
  IC50: 0.029 µM
